Reference: PMC9049071 (RSC Advances, 2020)
pIC50: −log10 of the molar value.

Legend:
[1] = test system: breast cancer cell line MCF-7; assay: Activity against breast cancer cell line MCF-7; format: cell-based; conditions: Homo sapiens, MCF7, read-out: IC50 against MCF-7
[2] = test system: endothelial human sapiens cell line EA.hy926; assay: Activity against endothelial cell line EA.hy926; format: cell-based; conditions: EA.hy 926, read-out: IC50 against EA.hy926

`CCc1cc(=O)n2c(=O)/c(=C/c3ccc(-c4ccc(C)cc4)cc3)sc2n1` [Compound 15, (Z)-7-ethyl-2-((4′-methyl-[1,1′-biphenyl]-4-yl)methylene)-5H-thiazolo[3,2-a]pyrimidine-3,5(2H)-dione] was tested, and the pIC50 [1] was < 3.60 and the pIC50 [2] was < 3.60.
